{"source": "ChEMBL document CHEMBL4507294", "about": "“Data for DCP probe MSD-CYP11B2” (2021)", "key": {"[1]": {"molecular_target": "Cytochrome P450 11B1, mitochondrial (Homo sapiens, UniProt P15538)", "sequence (P15538 whole entry)": "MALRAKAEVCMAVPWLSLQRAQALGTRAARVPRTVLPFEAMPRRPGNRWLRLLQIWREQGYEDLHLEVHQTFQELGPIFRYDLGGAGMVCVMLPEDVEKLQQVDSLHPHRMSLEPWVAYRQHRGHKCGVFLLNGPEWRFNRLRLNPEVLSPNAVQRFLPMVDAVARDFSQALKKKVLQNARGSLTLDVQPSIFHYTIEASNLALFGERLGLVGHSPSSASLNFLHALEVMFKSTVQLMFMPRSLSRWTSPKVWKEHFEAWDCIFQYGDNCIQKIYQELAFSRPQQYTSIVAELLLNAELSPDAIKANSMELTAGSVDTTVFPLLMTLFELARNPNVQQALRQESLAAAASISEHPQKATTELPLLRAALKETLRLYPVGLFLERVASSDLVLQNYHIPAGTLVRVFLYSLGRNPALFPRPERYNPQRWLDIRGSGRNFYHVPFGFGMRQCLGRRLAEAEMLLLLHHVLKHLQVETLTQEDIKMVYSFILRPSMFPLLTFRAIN", "assay": "Assay using V79 cell lines (CYP11B1)", "assay_type": "cell-based"}, "[2]": {"molecular_target": "5-hydroxytryptamine receptor 6 (Homo sapiens, UniProt P50406)", "sequence (P50406 whole entry)": "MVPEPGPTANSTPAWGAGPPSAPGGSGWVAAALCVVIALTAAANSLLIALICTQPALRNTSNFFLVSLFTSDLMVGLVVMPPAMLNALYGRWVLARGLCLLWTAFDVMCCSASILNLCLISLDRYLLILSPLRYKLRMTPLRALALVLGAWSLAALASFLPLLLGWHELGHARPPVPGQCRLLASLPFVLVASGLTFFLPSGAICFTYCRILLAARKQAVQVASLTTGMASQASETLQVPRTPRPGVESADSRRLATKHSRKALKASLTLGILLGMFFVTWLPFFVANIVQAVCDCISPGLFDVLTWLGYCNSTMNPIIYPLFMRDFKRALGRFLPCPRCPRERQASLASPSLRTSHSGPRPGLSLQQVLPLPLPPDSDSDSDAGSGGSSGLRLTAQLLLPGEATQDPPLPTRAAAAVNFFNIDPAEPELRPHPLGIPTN", "assay": "GPCRScan assay: inhibition of 5-HT6", "set-up": "radioligand conc. used [nm] 2.0 – 4.0, parental cells stable HEK"}, "[3]": {"molecular_target": "Glutamate receptor 2 (Homo sapiens) (UniProt P42262)", "sequence (P42262 whole entry)": "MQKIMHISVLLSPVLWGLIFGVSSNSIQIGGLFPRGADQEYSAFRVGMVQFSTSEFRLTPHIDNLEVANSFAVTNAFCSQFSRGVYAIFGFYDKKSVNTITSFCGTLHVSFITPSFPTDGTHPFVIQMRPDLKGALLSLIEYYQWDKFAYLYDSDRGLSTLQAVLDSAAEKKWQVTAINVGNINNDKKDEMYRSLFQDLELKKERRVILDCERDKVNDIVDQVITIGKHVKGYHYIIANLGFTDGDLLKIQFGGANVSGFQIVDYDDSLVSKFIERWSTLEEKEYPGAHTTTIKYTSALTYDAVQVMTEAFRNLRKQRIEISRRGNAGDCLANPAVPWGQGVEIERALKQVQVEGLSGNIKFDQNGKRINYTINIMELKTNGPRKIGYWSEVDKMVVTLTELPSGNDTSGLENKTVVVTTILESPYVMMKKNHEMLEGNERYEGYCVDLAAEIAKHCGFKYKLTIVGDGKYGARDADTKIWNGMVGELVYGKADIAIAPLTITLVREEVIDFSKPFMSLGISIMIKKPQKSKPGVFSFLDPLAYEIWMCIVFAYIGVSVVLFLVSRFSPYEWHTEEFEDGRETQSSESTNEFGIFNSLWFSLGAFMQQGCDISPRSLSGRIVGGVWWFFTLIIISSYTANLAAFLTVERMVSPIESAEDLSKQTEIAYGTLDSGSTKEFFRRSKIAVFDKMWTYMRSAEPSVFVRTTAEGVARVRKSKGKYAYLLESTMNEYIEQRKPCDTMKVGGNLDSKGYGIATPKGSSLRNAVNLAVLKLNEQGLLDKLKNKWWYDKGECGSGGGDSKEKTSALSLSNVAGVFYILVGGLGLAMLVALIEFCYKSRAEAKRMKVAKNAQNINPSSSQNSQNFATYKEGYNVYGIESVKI", "conditions": "Rattus norvegicus; Compound concentration 10.0 uM"}, "[4]": {"molecular_target": "D(2) dopamine receptor (Homo sapiens) (UniProt P14416)", "sequence (P14416 whole entry)": "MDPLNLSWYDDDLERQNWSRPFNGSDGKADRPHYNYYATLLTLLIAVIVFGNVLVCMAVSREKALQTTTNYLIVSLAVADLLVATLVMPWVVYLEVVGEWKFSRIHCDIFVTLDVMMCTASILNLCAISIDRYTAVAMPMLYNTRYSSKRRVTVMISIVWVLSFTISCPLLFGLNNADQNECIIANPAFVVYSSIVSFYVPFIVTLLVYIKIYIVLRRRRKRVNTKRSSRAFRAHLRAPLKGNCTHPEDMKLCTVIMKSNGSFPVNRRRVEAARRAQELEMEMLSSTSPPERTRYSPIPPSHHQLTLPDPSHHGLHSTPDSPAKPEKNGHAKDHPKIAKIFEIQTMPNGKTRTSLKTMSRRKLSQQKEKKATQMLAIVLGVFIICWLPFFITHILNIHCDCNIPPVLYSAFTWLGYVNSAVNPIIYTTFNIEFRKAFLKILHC", "conditions": "Compound concentration 10.0 uM"}, "[5]": {"molecular_target": "T1, Muscarinic acetylcholine receptor M1 (Homo sapiens) (UniProt P11229)", "T1 sequence (whole entry)": "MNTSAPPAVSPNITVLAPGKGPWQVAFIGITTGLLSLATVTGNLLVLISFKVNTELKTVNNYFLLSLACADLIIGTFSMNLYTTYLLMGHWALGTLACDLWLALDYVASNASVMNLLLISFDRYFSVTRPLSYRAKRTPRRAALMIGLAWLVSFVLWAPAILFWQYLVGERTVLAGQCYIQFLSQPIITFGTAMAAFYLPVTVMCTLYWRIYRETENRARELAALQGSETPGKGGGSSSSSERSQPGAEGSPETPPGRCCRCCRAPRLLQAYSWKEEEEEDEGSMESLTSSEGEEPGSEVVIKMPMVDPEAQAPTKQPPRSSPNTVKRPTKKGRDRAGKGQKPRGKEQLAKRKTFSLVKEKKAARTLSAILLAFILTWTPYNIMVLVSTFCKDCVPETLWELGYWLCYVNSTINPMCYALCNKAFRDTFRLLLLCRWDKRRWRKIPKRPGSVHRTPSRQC", "conditions": "Compound concentration 10.0 uM"}, "[6]": {"molecular_target": "Cholecystokinin receptor type A (Homo sapiens) (UniProt P32238)", "sequence (P32238 whole entry)": "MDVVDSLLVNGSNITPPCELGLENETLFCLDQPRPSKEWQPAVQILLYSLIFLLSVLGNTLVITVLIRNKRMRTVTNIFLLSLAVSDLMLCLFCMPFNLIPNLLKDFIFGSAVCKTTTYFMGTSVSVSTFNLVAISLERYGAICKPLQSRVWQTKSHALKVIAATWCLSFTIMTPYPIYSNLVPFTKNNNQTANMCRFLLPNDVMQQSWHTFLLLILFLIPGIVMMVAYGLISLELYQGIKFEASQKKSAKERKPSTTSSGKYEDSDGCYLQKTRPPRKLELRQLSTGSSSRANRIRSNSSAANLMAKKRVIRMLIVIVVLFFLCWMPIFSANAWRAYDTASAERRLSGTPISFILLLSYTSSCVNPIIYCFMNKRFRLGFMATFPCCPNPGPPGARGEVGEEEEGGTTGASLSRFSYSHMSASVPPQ", "assay": "Inhibition of Cholecystokinin CCK1 (CCKA) at 10 µM in the Eurofins-Panlabs radioligand binding assay (Eurofins_assay_218020)", "conditions": "Compound concentration 10.0 uM"}, "[7]": {"molecular_target": "Phosphodiesterase 3 (Homo sapiens) (UniProt Q14432+Q13370)", "assay": "Inhibition of Phosphodiesterase PDE3 at compound concentration of 10.0 uM in the Eurofins-Panlabs enzyme assay (Eurofins_assay_152000)", "assay_type": "protein assay", "set-up": "substrate with concentration 1.01 uM [3H] cAMP + cAMP, incubation time 20 min, incubation temperature 25 C", "conditions": "Compound concentration 10.0 uM"}, "[8]": {"molecular_target": "Melanocortin receptor 4 (Homo sapiens) (UniProt P32245)", "sequence (P32245 whole entry)": "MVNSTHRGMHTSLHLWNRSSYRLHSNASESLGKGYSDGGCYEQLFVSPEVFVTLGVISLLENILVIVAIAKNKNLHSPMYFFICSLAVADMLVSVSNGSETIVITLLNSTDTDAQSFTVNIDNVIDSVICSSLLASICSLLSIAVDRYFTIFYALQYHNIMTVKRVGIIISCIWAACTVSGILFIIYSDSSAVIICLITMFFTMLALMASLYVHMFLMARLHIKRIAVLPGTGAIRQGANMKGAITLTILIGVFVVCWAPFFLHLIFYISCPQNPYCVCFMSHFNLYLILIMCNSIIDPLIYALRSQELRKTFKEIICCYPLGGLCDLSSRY", "assay": "Inhibition of Melanocortin MC4 at 10 µM in the Eurofins-Panlabs radioligand binding assay (Eurofins_assay_251350)", "set-up": "ligand concentration 0.02 nM", "conditions": "Compound concentration 10.0 uM"}, "[9]": {"molecular_target": "Glutamate NMDA receptor (Rattus norvegicus) (UniProt P35439+Q00959+Q00960+Q00961+Q62645+Q8VHN2+Q9R1M7)", "conditions": "Compound concentration 10.0 uM"}, "[10]": {"molecular_target": "T2, Beta-1 adrenergic receptor (Homo sapiens, UniProt P08588)", "assay": "Panlabs assay (ADRB1)", "set-up": "compound concentration 10 uM"}, "[11]": {"molecular_target": "Alpha-2C adrenergic receptor (Homo sapiens, UniProt P18825)", "assay": "GPCRScan assay: inhibition of Alpha2C", "set-up": "radioligand conc. used [nm] 0.5 – 1.0, parental cells stable MDCK"}, "[12]": {"molecular_target": "GABA-A receptor; anion channel (Rattus norvegicus) (UniProt O09028+P15431+P18506+P18508+P19969+P20236+P23574+P23576+P28471+P28473+P30191+P62813+P63079+P63138+Q91ZM7+Q9ES14)", "conditions": "Compound concentration 10.0 uM"}, "[13]": {"molecular_target": "T2, Beta-1 adrenergic receptor"}, "[14]": {"molecular_target": "T2, Beta-1 adrenergic receptor", "assay": "Inhibition of Adrenergic beta1 at compound concentration of 10.0 uM in the Eurofins-Panlabs radioligand binding assay (Eurofins_assay_204010)", "set-up": "ligand concentration 0.03 nM, non-specific ligand with concentration 100 uM S(-)-Propranolol, incubation time 2 h, incubation temperature 25 C"}, "Homo sapiens": {"species": "Homo sapiens", "assay": "Glutamate, Metabotropic, mGlu5 Eurofins-Panlabs radioligand binding assay", "conditions": "Compound concentration 10.0 uM"}, "[15]": {"molecular_target": "T2, Beta-1 adrenergic receptor", "assay": "GPCRScan assay: inhibition of Beta1", "set-up": "radioligand conc. used [nm] 0.1 – 0.2, parental cells CHO Flp-In"}, "[16]": {"molecular_target": "Histamine H3 receptor (Homo sapiens) (UniProt Q9Y5N1)", "sequence (Q9Y5N1 whole entry)": "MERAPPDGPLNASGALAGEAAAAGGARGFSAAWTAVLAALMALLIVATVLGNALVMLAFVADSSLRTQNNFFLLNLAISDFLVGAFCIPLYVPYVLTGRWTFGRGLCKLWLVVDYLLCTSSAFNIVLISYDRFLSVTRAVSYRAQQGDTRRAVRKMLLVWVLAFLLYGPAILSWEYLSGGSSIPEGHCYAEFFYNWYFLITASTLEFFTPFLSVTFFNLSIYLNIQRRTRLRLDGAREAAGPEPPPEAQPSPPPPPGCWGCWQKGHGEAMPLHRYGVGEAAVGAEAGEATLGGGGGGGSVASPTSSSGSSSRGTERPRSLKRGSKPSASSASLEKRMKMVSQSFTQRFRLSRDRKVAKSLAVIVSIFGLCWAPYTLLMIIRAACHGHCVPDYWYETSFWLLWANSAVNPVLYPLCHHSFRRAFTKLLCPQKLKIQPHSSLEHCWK", "conditions": "Compound concentration 10.0 uM"}, "[17]": {"molecular_target": "Mu-type opioid receptor (Homo sapiens) (UniProt P35372)", "sequence (P35372 whole entry)": "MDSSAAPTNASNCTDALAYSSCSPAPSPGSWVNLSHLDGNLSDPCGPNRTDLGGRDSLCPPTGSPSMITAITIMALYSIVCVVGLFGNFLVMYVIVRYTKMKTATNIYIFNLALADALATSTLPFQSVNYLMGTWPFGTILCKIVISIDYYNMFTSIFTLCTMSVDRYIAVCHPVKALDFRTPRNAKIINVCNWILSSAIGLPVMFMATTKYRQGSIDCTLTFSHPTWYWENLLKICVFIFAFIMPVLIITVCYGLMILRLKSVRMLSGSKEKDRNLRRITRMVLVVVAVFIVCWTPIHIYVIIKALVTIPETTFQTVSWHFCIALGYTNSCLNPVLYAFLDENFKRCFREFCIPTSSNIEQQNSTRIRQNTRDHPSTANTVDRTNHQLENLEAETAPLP", "conditions": "Compound concentration 10.0 uM"}, "[18]": {"molecular_target": "Histamine H1 receptor (Homo sapiens) (UniProt P35367)", "sequence (P35367 whole entry)": "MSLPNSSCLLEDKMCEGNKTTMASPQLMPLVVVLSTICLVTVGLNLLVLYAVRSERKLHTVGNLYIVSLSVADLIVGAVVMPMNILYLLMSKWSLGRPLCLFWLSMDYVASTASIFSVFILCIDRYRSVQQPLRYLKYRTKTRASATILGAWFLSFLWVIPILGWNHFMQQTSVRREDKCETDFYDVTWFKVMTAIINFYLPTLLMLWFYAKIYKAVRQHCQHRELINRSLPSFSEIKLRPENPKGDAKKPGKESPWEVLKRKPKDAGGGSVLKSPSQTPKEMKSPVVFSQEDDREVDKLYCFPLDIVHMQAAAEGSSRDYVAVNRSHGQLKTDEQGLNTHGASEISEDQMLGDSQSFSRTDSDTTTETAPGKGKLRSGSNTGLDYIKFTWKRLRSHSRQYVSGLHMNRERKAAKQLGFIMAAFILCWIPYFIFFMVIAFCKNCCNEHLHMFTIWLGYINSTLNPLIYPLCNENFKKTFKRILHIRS", "conditions": "Compound concentration 10.0 uM"}, "[19]": {"molecular_target": "Acetylcholine receptor subunit alpha (Homo sapiens) (UniProt P02708)", "sequence (P02708 whole entry)": "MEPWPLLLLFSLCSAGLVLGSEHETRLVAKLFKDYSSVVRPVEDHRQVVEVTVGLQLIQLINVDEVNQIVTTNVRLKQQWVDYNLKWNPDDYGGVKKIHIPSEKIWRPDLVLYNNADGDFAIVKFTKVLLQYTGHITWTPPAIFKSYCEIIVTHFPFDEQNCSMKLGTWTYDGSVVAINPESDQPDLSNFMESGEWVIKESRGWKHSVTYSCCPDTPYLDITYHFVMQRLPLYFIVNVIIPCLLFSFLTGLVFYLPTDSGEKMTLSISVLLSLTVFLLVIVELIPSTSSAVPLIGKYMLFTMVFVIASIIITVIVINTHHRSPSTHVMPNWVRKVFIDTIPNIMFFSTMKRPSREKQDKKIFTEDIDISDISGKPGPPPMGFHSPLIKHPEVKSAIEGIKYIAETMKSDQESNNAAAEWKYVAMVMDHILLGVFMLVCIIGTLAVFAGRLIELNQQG", "assay": "Inhibition of Nicotinic Acetylcholine D1, Bungarotoxin at 10 µM in the Eurofins-Panlabs radioligand binding assay (Eurofins_assay_258700)", "conditions": "Compound concentration 10.0 uM"}, "[20]": {"molecular_target": "Glutamate receptor ionotropic, kainate (Rattus norvegicus) (UniProt P22756+Q01812+P42260+P42264+Q63273)", "assay": "Inhibition of Glutamate, Kainate at 10 µM in the Eurofins-Panlabs radioligand binding assay (Eurofins_assay_232700)", "conditions": "Compound concentration 10.0 uM"}, "[21]": {"molecular_target": "T3, Alpha-2B adrenergic receptor (Homo sapiens, UniProt P18089)", "T3 sequence (P18089 whole entry)": "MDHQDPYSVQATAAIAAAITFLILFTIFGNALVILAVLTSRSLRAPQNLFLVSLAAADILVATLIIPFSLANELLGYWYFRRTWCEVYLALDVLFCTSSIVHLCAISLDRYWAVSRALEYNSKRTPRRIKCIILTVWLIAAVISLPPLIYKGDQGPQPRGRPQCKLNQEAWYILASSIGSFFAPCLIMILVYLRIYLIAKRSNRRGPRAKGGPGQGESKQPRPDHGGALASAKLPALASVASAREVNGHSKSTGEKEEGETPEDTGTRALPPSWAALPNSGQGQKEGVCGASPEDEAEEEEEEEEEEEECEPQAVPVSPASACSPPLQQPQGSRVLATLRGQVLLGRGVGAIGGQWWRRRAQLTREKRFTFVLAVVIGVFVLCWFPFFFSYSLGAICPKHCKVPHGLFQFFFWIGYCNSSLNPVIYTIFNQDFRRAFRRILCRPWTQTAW", "assay": "Panlabs assay (ADRA2B)", "set-up": "compound concentration 10 uM"}, "[22]": {"molecular_target": "T4, 5-hydroxytryptamine receptor 2C (Homo sapiens) (UniProt P28335)", "T4 sequence (whole entry)": "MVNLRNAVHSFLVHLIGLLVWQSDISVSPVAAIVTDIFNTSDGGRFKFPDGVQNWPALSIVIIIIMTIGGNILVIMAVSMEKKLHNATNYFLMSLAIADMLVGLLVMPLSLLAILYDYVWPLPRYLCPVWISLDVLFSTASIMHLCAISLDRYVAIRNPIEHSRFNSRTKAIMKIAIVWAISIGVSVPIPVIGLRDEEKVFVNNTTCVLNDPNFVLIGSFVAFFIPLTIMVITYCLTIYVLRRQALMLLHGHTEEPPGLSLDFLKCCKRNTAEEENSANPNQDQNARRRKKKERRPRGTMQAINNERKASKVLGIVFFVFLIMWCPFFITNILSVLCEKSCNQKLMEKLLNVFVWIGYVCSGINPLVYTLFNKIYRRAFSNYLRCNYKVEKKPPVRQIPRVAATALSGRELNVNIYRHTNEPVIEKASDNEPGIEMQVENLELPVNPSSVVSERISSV", "conditions": "Compound concentration 10.0 uM"}}, "note": "Calls of active or inactive are those of the source. The calls are words filed in the database; no cut-off is given here.", "data": [{"smiles": "FC(F)(F)c1ccc2c(c1)nc(-c1cccnc1)n2C1CC1", "note": "[MSD-CYP11B2-Negative-control]", "values": [{"measurement": "IC50", "setting": "[1]", "value": "> 10 µM (not active)"}, {"measurement": "Ki", "setting": "[2]", "value": 3.06, "unit": "µM"}]}, {"smiles": "CC(C)(O)c1cncc(-c2nc3ccc(F)cc3n2C2CC2)c1", "note": "[MSD-CYP11B2]", "values": [{"measurement": "inhibition", "setting": "[3]", "value": 22, "unit": "%"}, {"measurement": "inhibition", "setting": "[4]", "value": -4, "unit": "%"}, {"measurement": "inhibition", "setting": "[5]", "value": -4, "unit": "%"}, {"measurement": "inhibition", "setting": "[6]", "value": 4, "unit": "%"}, {"measurement": "inhibition", "setting": "[7]", "value": 10, "unit": "%"}, {"measurement": "inhibition", "setting": "[8]", "value": -1, "unit": "%"}, {"measurement": "inhibition", "setting": "[9]", "value": -1, "unit": "%"}, {"measurement": "IC50", "setting": "[10]", "value": 9.62, "unit": "µM"}, {"measurement": "Ki", "setting": "[11]", "value": 0.626, "unit": "µM"}, {"measurement": "inhibition", "setting": "[12]", "value": 16, "unit": "%"}, {"measurement": "inhibition", "setting": "[13]; Compound concentration 0.01 uM", "value": 5, "unit": "%"}, {"measurement": "inhibition", "setting": "[13]; Compound concentration 0.1 uM", "value": -1, "unit": "%"}, {"measurement": "inhibition", "setting": "[13]; Compound concentration 1.0 uM", "value": 9, "unit": "%"}, {"measurement": "inhibition", "setting": "[13]; Compound concentration 10.0 uM", "value": 51, "unit": "%"}, {"measurement": "IC50", "setting": "[14]", "value": 9.62, "unit": "µM"}, {"measurement": "Ki", "setting": "[14]", "value": 5.55, "unit": "µM"}, {"measurement": "inhibition", "setting": "Homo sapiens", "value": 25, "unit": "%"}, {"measurement": "Ki", "setting": "[15]", "value": 2.37, "unit": "µM"}, {"measurement": "inhibition", "setting": "[16]", "value": -4.55, "unit": "%"}, {"measurement": "inhibition", "setting": "[17]", "value": 7, "unit": "%"}, {"measurement": "inhibition", "setting": "[18]", "value": 23, "unit": "%"}, {"measurement": "inhibition", "setting": "[19]", "value": 0, "unit": "%"}, {"measurement": "inhibition", "setting": "[20]", "value": -5, "unit": "%"}, {"measurement": "IC50", "setting": "[21]", "value": "4.7 µM (active)"}, {"measurement": "inhibition", "setting": "[22]", "value": 11, "unit": "%"}]}]}
